This is an account of results in ChEMBL document CHEMBL4422680, “Synthesis, biological evaluation, and molecular docking study of novel allyl-retrochalcones as a new class of protein tyrosine phosphatase 1B inhibitors” (Bioorg Med Chem, 2019).

Active and inactive are the calls of the source. No cut-off for these calls is given here.

Series [1] is described as follows: Tmax in Sprague-Dawley rat at 20 mg/kg, ig administered as single dose by UPLC/MS/MS analysis. The series is classed as ADME, organism-based. The following applies: in vivo, po.
The test system of series [2] is Mus musculus. Nature of the series: Protection against hyperglycemia-induced liver injury in db/db mouse assessed as increase in IRS1 phosphorylation in liver at 10 to 20 mg/kg, po administered every other day for 10 weeks measured post last dose by immunoblotting analysis. Format: functional, organism-based.
Series [3] in a line: AUC (0 to infinity) in Sprague-Dawley rat at 20 mg/kg, ig administered as single dose by UPLC/MS/MS analysis. The following applies: in vivo, po. Format: ADME, organism-based. Details: dose 20 mg/kg, time infinity, route […].
A short description of series [4]: Apparent half-life of the terminal disposition phase in Sprague-Dawley rat at 2 mg/kg, iv administered as single dose by UPLC/MS/MS analysis. Format: ADME, organism-based. The settings on record: in vivo, read-out: t1/2 lambda z (converted).
The target in series [5] is T1, Tyrosine-protein phosphatase non-receptor type 1 (Homo sapiens) (UniProt P18031).
T1 sequence (whole entry): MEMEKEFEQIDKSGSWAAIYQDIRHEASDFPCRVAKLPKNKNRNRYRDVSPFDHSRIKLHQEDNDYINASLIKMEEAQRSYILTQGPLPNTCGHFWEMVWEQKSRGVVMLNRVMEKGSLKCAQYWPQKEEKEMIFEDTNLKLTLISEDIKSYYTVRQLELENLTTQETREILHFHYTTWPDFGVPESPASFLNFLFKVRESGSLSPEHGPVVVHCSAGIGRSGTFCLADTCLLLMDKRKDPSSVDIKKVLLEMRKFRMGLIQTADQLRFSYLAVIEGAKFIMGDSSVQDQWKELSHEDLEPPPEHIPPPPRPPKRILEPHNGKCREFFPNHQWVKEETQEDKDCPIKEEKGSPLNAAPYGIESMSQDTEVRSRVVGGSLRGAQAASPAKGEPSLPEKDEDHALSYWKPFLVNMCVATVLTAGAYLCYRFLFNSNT
Nature of the series: Inhibition of PTP1B in human HepG2 cells assessed as suppression of PA-induced insulin resistance by measuring increase in AKT phosphorylation at 10 uM preincubated for 1 hr followed by PA-stimulation for 24 hrs and subsequent insulin measured by immunoblotting analysis. Format: cell-based.

For series [6], the target named is T1, Tyrosine-protein phosphatase non-receptor type 1 (Homo sapiens). Nature of the series: Inhibition of PTP1B in human HepG2 cells assessed as suppression of PA-induced insulin resistance by measuring increase in IRS1 phosphorylation at 5 uM preincubated for 1 hr followed by PA-stimulation for 24 hrs and subsequent insulin measured by immunoblotting analysis. Format: cell-based. (In general: In western blotting, separated proteins are transferred to a membrane and probed.)

A short description of series [7]: Cmax in Sprague-Dawley rat at 2 mg/kg, iv administered as single dose by UPLC/MS/MS analysis. The series is classed as ADME, organism-based. Details: dose 2 mg/kg, route intravenous. The settings on record: in vivo.
The subject of series [8] is Mus musculus. Nature of the series: Protection against hyperglycemia-induced liver injury in db/db mouse assessed as reduction in size and number of liver lipid droplets at 10 to 20 mg/kg, po administered every other day for 10 weeks measured post last dose by hematoxylin and eosin staining based light microscopic analysis. Format: functional, organism-based.
Series [9] relates to Mus musculus. The experiment in a line: Protection against hyperglycemia-induced liver injury in db/db mouse assessed as reduction in serum total cholesterol level at 10 to 20 mg/kg, po administered every other day for 10 weeks measured post last dose. The series is classed as functional, organism-based.
For series [10], the target named is T2, Tyrosine-protein phosphatase non-receptor type 1 (Homo sapiens, UniProt P18031).
T2 sequence (P18031 whole entry): T1 sequence (whole entry)
The experiment in a line: (§1) Inhibition of recombinant human PTP1B using pNPP as substrate measured after 30 mins. The settings on record: read-out: IC50.

The target in series [11] is T1, Tyrosine-protein phosphatase non-receptor type 1 (Homo sapiens). The series is described as §1.
Series [12] can be described thus: AUC (0 to t) in Sprague-Dawley rat at 2 mg/kg, iv administered as single dose by UPLC/MS/MS analysis. The series is classed as ADME, organism-based. The following applies: in vivo.
Series [13] is described as follows: AUC (0 to infinity) in Sprague-Dawley rat at 2 mg/kg, iv administered as single dose by UPLC/MS/MS analysis. The series is classed as ADME, organism-based. More on the design: dose 2 mg/kg, route intravenous, time infinity. The following applies: in vivo.
The target in series [14] is T1, Tyrosine-protein phosphatase non-receptor type 1 (Homo sapiens). Nature of the series: Potency index, ratio of […] IC50 to test compound IC50 for recombinant human PTP1B.
Series [15] is described as follows: Tmax in Sprague-Dawley rat at 2 mg/kg, iv administered as single dose by UPLC/MS/MS analysis. The settings on record: in vivo. The series is classed as ADME, organism-based.
In series [16] the test system is Mus musculus. Nature of the series: Protection against hyperglycemia-induced liver injury in db/db mouse assessed as reduction in serum AKP level at 10 to 20 mg/kg, po administered every other day for 10 weeks measured post last dose. Format: functional, organism-based.
Series [17] deals with Mus musculus. Nature of the series: Protection against hyperglycemia-induced liver injury in db/db mouse assessed as reduction in steatosis at 10 to 20 mg/kg, po administered every other day for 10 weeks measured post last dose by hematoxylin and eosin staining based light microscopic analysis. The series is classed as functional, organism-based.
Series [18] is described as follows: AUC (0 to t) in Sprague-Dawley rat at 20 mg/kg, ig administered as single dose by UPLC/MS/MS analysis. The settings on record: in vivo, po. Format: ADME, organism-based.
Series [19] is described as follows: Apparent half-life of the terminal disposition phase in Sprague-Dawley rat at 20 mg/kg, ig administered as single dose by UPLC/MS/MS analysis. Format: ADME, organism-based. The following applies: in vivo, po, read-out: t1/2 lambda z (converted).
The nature of series [20]: Drug uptake in Sprague-Dawley rat at 20 mg/kg, ig administered as single dose measured after 4 hrs by UPLC/MS/MS analysis. The following applies: in vivo, po. Format: ADME, organism-based.
The nature of series [21]: Cmax in Sprague-Dawley rat at 20 mg/kg, ig administered as single dose by UPLC/MS/MS analysis. Format: ADME, organism-based. More on the design: dose 20 mg/kg, route […]. The following applies: in vivo, po.
Series [22] relates to Mus musculus. The experiment in a line: Protection against hyperglycemia-induced liver injury in db/db mouse assessed as reduction in serum ALT level at 10 to 20 mg/kg, po administered every other day for 10 weeks measured post last dose. The series is classed as functional, organism-based.

On to `C=CCc1cc(/C=C/C(=O)c2cccc(N(C)C)c2)c(OC)cc1O`, for which the time to peak (Tmax) stood at 14 h in series [1] and 4.8 min in series [15]. The result in the series with Mus musculus [2], in the series with Mus musculus [8], with Mus musculus [9], in the series with Mus musculus [16], with Mus musculus [17] and in the series on Mus musculus [22] was Active. In addition, in series [3], the exposure (AUC) worked out at 605.52 ng·h/mL. The half-life in [4] was 21.1 h; in [19] it was 8.85 h. Further, the inhibition entry in series [5] and in series [6] was “Active” each time. Further, the results for the Cmax in series [7] and in [21] were 2150 ng/mL and 46.2 ng/mL, respectively. Moreover, the 50% inhibitory concentration (IC50) in series [10] amounted to 570 nM. Also, the inhibition entry in series [11] is “Dose-dependent effect”. For the same molecule, the exposure AUC(0-t) was 1430 ng·h/mL in series [12] and 584 ng·h/mL in [18]. In series [13], this molecule came in with an AUC(0-inf) of 1620 ng·h/mL. In addition, the Ratio IC50 in [14] is 6. Besides, the Drug uptake entry in series [20] is “Active”.

The Tmax is the time from dosing to the highest level. For orientation: AUC means the area under the concentration-time curve, a measure of exposure. High values mean high exposure, low ones low exposure. By Cmax is commonly meant the highest concentration seen after dosing. What is called IC50 is the point on the concentration scale where inhibition reaches its midpoint. As a reminder, the AUC(0-t) is exposure summed from dosing to a finite time, without extrapolation to infinity. A low value points to low exposure. What is called AUC(0-inf) is total exposure, with the tail of the curve extrapolated. The low end stands for less exposure, the high end for more exposure.
